Laboratory results published in article PMC12649225, “Machine Learning-Identified Potent Antimicrobial Peptides Against Multidrug-Resistant Bacteria and Skin Infections” (Antibiotics, 2025).
Residues, ends and D or L forms follow the SMILES beside them.

Key:
[1] = system: A. baumannii RUH875; test: SYTOX Green membrane permeabilization assay; format: cell-based, Acinetobacter baumannii; details: RPMI, 1 μM SYTOX Green; for SYTOX fluorescence intensity, A. baumannii: 1- and 2-fold the LC99.9_2h concentrations, over 90 min; for Concentrations inducing membrane permeabilization / SYTOX uptake: 90 min, 37 °C
Method: Control samples were exposed to RPMI only. As a positive control, heat-killed bacteria were incubated at 95 °C for 10 min to induce maximum membrane permeabilization. Fluorescence (excitation: 485 nm, emission: 520 nm) was monitored every minute for 90 min at 37 °C using a […] plate reader (Ortenberg, Germany), with peptides and positive controls added after the third cycle. Background fluorescence (SYTOX Green alone) was subtracted from all values. All assays were performed in triplicate and repeated twice independently.

[2] = system: S. aureus JAR060131; test: 3D human skin equivalent (HSE) infection model; format: cell-based, Staphylococcus aureus; details: for Concentration eradicating adherent S. aureus in HSE / Concentration giving significant reductions in adherent S. aureus in HSE: adherent fraction; for Concentration giving significant reductions in adherent S. aureus in HSE: p < 0.001
Method: Human keratinocytes (Ker-CT cell line; ATCC CRL-4048; RRID: CVCL_S877; ATCC, Manassas, VA, USA (October 2017)) were used to generate human skin equivalents (HSEs) following the method described by Gent et al.. Briefly, HSEs were cultured for 12 days, after which the culture medium was replaced with antibiotic-free medium, and cells were grown for an additional two days before infection (Figure S2). On the day of infection, HSEs were inoculated with 300 µL of S. aureus JAR060131 suspension (3 × 10^5 CFU) and incubated for 1 h at 37 °C with 5% CO2. Following incubation, the bacterial suspension was removed, and HSEs were washed once with 500 µL PBS. HSEs were then treated for 4 h with PBS (control), GDST-038, GDST-045, their RI variants, or the reference peptide SAAP-148 at concentrations of 3.75, 15, and 60 μM, in triplicate. Subsequently, supernatants containing planktonic (non-adherent) bacteria were collected and kept on ice. Peptide activity was neutralized by adding SPS (final concentration: 0.025% (v/v)). Adherent bacteria within HSEs were quantified by homogenizing the tissues in 0.5 mL PBS containing 0.025% (v/v) SPS, using five zirconia beads (Ø 2 mm; BioSpec Products, Bartlesville, OK, USA) in a MagNA Lyser System (Roche) for three cycles of 30 sec at 7000 rpm, with 30 sec cooling intervals on ice. Both supernatants and homogenized fractions were serially diluted, plated on blood agar, and incubated overnight at 37 °C to determine CFU counts.

[3] = system: A. baumannii RUH875; test: microbe, parasite or virus in culture; format: cell-based, Acinetobacter baumannii; details: RPMI, 48 h
Method: (§1) The potential for resistance development to GDST-038, GDST-045, and their RI variants was assessed as described by Habets and Brockhurst. Resistance development to the antibiotics rifampicin and ciprofloxacin (both from Sigma-Aldrich) was evaluated for comparison. Briefly, 10 μL of a mid-logarithmic phase culture of A. baumannii RUH875 or S. aureus JAR060131 was added to 90 μL of peptide (final concentrations: 0.23 to 120 μM) or antibiotic (final concentrations: 0.03 to 256 μg/mL) solution in RPMI, in 96-well polypropylene round-bottom plates (Costar). All incubations were performed in quadruplicate. Plates were sealed with breathable seals (Greiner) and incubated at 37 °C with shaking at 120 rpm in a humidified environment for 18 h (S. aureus) or 48 h (A. baumannii).
(§2) The minimum inhibitory concentration (MIC), defined as the lowest concentration that inhibited visible bacterial growth, was then determined. Subsequently, 2 μL from the 0.5-fold MIC condition was transferred to fresh medium containing a concentration series ranging from 0.5- to 8-fold the new MIC. This procedure was repeated over 22 consecutive passages to monitor resistance development.

[4] = system: S. aureus JAR060131; test: microbe, parasite or virus in culture; format: cell-based, Staphylococcus aureus; details: RPMI, 18 h
Method: as §1, §2

[5] = system: S. aureus JAR060131 biofilm; test: Biofilm killing; format: cell-based, Staphylococcus aureus; details: for Concentration giving ≥3-log reduction of S. aureus biofilm CFU within 2 h / Concentration giving complete eradication of S. aureus biofilm within 24 h: 24 h biofilm; for Concentration giving ≥3-log reduction of S. aureus biofilm CFU within 2 h: 2 h treatment in PBS; for Concentration giving complete eradication of S. aureus biofilm within 24 h: 24 h treatment in PBS; for Concentration giving ≥3-log reduction of S. aureus biofilm CFU within 24 h: 24 h treatment, >3 log for BP2 and pexiganan
Method: Mid-logarithmic phase cultures of A. baumannii RUH875 or S. aureus JAR060131 were diluted to 1 × 10^8 CFU/mL in RPMI supplemented with 1% glucose. A total of 100 μL of each suspension was added to flat-bottom polystyrene 96-well microplates (Costar) and incubated under static conditions at 37 °C in a humidified atmosphere for 24 h to allow biofilm formation. After 24 h, planktonic bacteria were removed, and wells were carefully washed with 100 μL PBS [60]. […] Control samples were exposed to 100 μL of PBS only.
Biofilms were treated at 37 °C for either 2 or 24 h. […] Plates were sealed and sonicated for 5 min (Elmasonic, Singen, Germany; 45 kHz) at room temperature to dislodge adherent bacteria. […] Quantitative cultures were performed by plating serial 10-fold dilutions on sheep blood agar, and results were expressed as log10 CFU per well. The lower limit of detection was three CFU. Each condition was tested in six replicates.

[6] = 4 h peptide exposure, tested 3.75, 15, 60 μM
[7] = at all tested concentrations (3.75 µM, 15 µM, and 60 µM), 4 h

Compound	SYTOX fluorescence intensity, A. baumannii [1]	Concentration eradicating adherent S. aureus in HSE [2, 6]	Effect on non-adherent S. aureus in HSE [2, 7]	Concentration giving ≥3-log reduction of S. aureus biofilm CFU within 2 h [5]	Concentration giving complete eradication of S. aureus biofilm within 24 h [5]	Concentrations inducing membrane permeabilization / SYTOX uptake [1]	Concentration giving significant reductions in adherent S. aureus in HSE ([2]; 4 h)	Effect on non-adherent S. aureus in HSE ([2]; at 15 µM and 60 µM, 4 h)	Concentration giving ≥3-log reduction of S. aureus biofilm CFU within 24 h [5]	further results
Ac-KRWVKILKKVWRFL-NH2 [GDST-045]	fluorescence levels similar to heat-killed controls	15 µM	completely eradicated	≥ 7.5 µM	≥ 30 µM					MIC A. baumannii at passage 16 (peak) [3]: 7.50 µM; MIC A. baumannii at the 1st passage ([3]; median of four replicates): 0.94 µM; MIC A. baumannii at the 22nd passage ([3]; serial passage at sub-inhibitory concentrations): 0.47 µM; MIC S. aureus, constant throughout all passages ([4]; 22 passages): 0.47 µM
Ac-LKRVWKRVFKLLKRYWRQLKKPVR-NH2 (N-terminus and C-terminus assumed) [SAAP-148, reference compound]		60 µM				0.47 to 3.75 µM				CFU reduction of non-adherent S. aureus in HSE ([2]; 15 µM, 4 h, non-adherent fraction): 3 log CFU; Concentration reducing non-adherent S. aureus to below the detection limit in HSE ([2]; non-adherent fraction, 4 h peptide exposure, tested 3.75, 15, 60 μM): 60 µM
CC[C@@H](C)[C@@H](NC(=O)[C@@H](C)NC(=O)[C@@H](CCCCN)NC(=O)[C@@H](CCCCN)NC(=O)[C@@H](Cc1c[nH]c2ccccc12)NC(=O)[C@@H](Cc1c[nH]c2ccccc12)NC(=O)[C@@H](CCCNC(=N)N)NC(=O)[C@@H](CC(C)C)NC(=O)[C@@H](CC(C)C)NC(C)=O)C(=O)N[C@H](CCCCN)C(=O)N[C@@H](C(=O)N[C@H](Cc1c[nH]c2ccccc12)C(=O)N[C@H](CCCNC(=N)N)C(=O)N[C@H](CCCCN)C(N)=O)C(C)C [GDST-038-RI] (HELM PEPTIDE1{[ac].[dL].[dL].[dR].[dW].[dW].[dK].[dK].[dA].[dI].[dK].[dV].[dW].[dR].[dK].[am]}$$$$V2.0; N-terminus and C-terminus assumed)	fluorescence levels similar to heat-killed controls						60 µM	significant bacterial reductions	≥ 60 µM	
Ac-KRWVKIAKKWWRLL-NH2 [GDST-038]	fluorescence levels similar to heat-killed controls	15 µM	completely eradicated	≥ 60 µM		0.47 µM			120 µM	MIC A. baumannii, stable over 22 passages [3]: 0.47 µM; MIC S. aureus at the 22nd passage [4]: 1.88 µM; MIC S. aureus at the 1st passage ([4]; median of four replicates): 0.94 µM; S. aureus biofilm CFU reduction within 2 h ([5]; 2 h treatment, concentration not given): 5.1 log CFU
CC[C@@H](C)[C@@H](NC(=O)[C@@H](CC(C)C)NC(=O)[C@@H](CCCCN)NC(=O)[C@@H](CCCCN)NC(=O)[C@H](NC(=O)[C@@H](Cc1c[nH]c2ccccc12)NC(=O)[C@@H](CCCNC(=N)N)NC(=O)[C@@H](Cc1ccccc1)NC(=O)[C@@H](CC(C)C)NC(C)=O)C(C)C)C(=O)N[C@H](CCCCN)C(=O)N[C@@H](C(=O)N[C@H](Cc1c[nH]c2ccccc12)C(=O)N[C@H](CCCNC(=N)N)C(=O)N[C@H](CCCCN)C(N)=O)C(C)C [GDST-045-RI] (HELM PEPTIDE1{[ac].[dL].[dF].[dR].[dW].[dV].[dK].[dK].[dL].[dI].[dK].[dV].[dW].[dR].[dK].[am]}$$$$V2.0; N-terminus and C-terminus assumed)	fluorescence levels similar to heat-killed controls			≥ 30 µM	120 µM		15 µM	significant bacterial reductions		
